Read-outs that look alike come from different tables or passages of the source.
How the values were obtained:
Test in all cases: biochemical
Assay type in all cases: binding
α2β2 nAChR subtype = target: T1, α2β2 nAChR subtype (Rattus norvegicus, UniProt P12389+P12390)
T1 construct: expressed in transfected cells
From the text: (§1) In order to assess the steric and hydropathic effects of the C-5 substituents of the pyridine on the binding affinity and subtype-selectivity at neuronal nicotinic acetylcholine receptors. […] The binding affinity ratios for a ligand, calculated from its affinities at an α subunit paired with either the β2 osubunit or the β4 subunit, represents a measure of the selectivity of that ligand with regard to the β subunits.

α2β4 nAChR subtype = target: T2, α2β4 nAChR subtype (Rattus norvegicus, UniProt P12389+P12392)
T2 construct: expressed in transfected cells
T2 sequence (P12389 28-511): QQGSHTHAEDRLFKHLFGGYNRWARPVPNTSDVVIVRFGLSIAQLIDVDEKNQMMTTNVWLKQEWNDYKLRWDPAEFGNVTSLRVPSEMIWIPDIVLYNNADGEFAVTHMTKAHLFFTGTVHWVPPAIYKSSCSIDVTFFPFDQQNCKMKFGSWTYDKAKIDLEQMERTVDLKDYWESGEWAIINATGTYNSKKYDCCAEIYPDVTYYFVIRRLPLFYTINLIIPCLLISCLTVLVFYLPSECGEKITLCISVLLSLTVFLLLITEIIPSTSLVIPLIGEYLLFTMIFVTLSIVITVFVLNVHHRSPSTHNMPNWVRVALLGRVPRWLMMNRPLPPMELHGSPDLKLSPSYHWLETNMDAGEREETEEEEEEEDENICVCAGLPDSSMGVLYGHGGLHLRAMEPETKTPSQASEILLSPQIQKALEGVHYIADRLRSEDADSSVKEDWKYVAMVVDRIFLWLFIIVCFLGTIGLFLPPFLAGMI
T2 sequence (P12392 21-495): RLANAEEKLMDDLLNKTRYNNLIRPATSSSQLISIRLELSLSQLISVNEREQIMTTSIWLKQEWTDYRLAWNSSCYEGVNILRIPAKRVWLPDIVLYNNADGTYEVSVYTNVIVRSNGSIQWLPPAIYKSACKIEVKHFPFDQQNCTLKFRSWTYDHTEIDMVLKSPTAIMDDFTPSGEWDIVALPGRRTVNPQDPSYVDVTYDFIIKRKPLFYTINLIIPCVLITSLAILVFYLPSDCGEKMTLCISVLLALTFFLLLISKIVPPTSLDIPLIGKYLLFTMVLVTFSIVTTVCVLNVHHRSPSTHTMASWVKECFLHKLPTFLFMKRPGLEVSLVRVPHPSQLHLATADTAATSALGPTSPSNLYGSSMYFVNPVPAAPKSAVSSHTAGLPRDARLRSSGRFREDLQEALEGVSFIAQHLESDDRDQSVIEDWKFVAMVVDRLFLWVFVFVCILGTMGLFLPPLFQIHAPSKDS
From the text: as §1

α3β2 nAChR subtype = target: T3, α3β2 nAChR subtype (Rattus norvegicus, UniProt P04757+P12390)
T3 construct: expressed in transfected cells
T3 sequence (P12390 25-500): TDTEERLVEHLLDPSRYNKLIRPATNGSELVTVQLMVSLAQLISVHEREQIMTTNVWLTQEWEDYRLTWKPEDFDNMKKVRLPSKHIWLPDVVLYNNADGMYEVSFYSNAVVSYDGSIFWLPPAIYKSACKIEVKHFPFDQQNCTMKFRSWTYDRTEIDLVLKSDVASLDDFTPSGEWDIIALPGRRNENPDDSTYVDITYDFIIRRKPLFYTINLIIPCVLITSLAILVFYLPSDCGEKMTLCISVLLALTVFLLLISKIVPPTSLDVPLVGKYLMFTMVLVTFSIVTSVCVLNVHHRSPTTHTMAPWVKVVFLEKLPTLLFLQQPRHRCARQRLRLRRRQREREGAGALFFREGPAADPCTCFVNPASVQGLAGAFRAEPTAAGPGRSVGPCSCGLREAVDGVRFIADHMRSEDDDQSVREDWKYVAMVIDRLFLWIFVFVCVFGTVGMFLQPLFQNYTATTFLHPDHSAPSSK
T3 sequence (P04757 26-499): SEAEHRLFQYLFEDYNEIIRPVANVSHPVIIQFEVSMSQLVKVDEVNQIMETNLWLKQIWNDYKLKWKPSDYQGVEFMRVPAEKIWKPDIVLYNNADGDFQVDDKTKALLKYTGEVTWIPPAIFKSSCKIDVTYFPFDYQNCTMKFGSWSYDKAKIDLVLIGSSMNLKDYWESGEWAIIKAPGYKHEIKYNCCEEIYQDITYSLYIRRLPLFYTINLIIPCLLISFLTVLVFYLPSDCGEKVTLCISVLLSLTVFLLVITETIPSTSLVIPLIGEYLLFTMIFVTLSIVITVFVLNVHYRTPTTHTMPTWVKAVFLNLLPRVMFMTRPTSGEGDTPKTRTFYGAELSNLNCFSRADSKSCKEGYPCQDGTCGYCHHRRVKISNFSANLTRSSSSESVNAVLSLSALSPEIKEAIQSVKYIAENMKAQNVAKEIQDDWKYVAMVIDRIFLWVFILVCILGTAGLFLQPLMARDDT
From the text: as §1

α3β4 nAChR subtype = target: T4, α3β4 nAChR subtype (Rattus norvegicus, UniProt P04757+P12392)
T4 construct: expressed in transfected cells
T4 sequence (P04757 26-499): as above
T4 sequence (P12392 21-495): as the sequence (P12392 21-495) above
From the text: as §1

α4β2 nAChR subtype = target: T5, α4β2 nAChR subtype (Rattus norvegicus, UniProt P09483+P12390)
T5 construct: expressed in transfected cells
T5 sequence (P12390 25-500): as the sequence (P12390 25-500) above
T5 sequence (P09483 31-630): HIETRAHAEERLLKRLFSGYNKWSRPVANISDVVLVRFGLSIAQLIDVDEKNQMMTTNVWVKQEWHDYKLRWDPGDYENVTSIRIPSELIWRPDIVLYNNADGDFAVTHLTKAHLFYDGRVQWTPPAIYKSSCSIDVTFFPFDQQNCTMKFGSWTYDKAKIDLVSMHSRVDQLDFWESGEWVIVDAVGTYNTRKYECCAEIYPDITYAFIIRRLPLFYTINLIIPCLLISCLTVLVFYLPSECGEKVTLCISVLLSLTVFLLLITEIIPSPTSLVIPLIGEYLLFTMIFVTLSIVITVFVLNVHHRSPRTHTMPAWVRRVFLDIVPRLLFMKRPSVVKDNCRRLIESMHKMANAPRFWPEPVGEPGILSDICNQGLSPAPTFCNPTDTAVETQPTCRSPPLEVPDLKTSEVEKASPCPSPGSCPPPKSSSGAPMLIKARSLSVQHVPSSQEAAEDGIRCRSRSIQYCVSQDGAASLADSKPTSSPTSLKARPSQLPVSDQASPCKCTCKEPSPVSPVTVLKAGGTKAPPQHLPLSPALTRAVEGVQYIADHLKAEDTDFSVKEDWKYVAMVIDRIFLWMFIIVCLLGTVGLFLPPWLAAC
From the text: as §1

α4β4 nAChR subtype = target: T6, α4β4 nAChR subtype (Rattus norvegicus, UniProt P09483+P12392)
T6 construct: expressed in transfected cells
T6 sequence (P12392 21-495): as the sequence (P12392 21-495) above
T6 sequence (P09483 31-630): as the sequence (P09483 31-630) above
From the text: as §1

[1] = target: T7, receptors in rat forebrain (mainly α4β2) (Rattus norvegicus, UniProt P09483+P12390)
T7 construct: from tissue; host or cells: rat forebrain homogenate
T7 sequence (P09483 31-630): as above
T7 sequence (P12390 25-500): as the sequence (P12390 25-500) above
From the text: as §1
In Vitro Inhibition of ^3H-Epibatidin Binding
The high affinity binding site for ^3H-epibatidin is most certainly binding to the α4β2 subtype of nicotinic receptors. The identity of the low affinity site is still believed to be unknown.
Tissue preparation: Preparations may be performed at 0-4° C. unless otherwise indicated. […] The tissue suspension may then be centrifuged at 27,000×g for 10 min. The supernatant is then discarded and the pellet may then be washed three times by centrifugation at 27,000×g for 10 min in 20 mL fresh buffer, and the final pellet may be resuspended in fresh buffer (400 mL per g of original tissue) and used for binding assays.
Assay: Aliquots of 2.0 mL homogenate may be added to 0.100 mL of test solution and 0.100 mL of ^3H-epibatidin (0.3 nM, final concentration), mixed and incubated for 60 min at room temperature. […] The amount of radioactivity on the filters may be determined by conventional liquid scintillation counting. Specific binding is total binding minus non-specific binding.

[2] = Ki α2β2, Table 4, bivalent analogues
[3] = Ki α2β4, Table 4, bivalent analogues
[4] = Ki α3β2, Table 4, bivalent analogues
[5] = Ki α3β4, Table 4, bivalent analogues
[6] = Ki α4β2, Table 4, bivalent analogues
[7] = Ki α4β4, Table 4, bivalent analogues
[8] = Ki α2β2, Table 5, rat nAChR subtypes
[9] = Ki α2β4, Table 5, rat nAChR subtypes
[10] = Ki α3β2, Table 5, rat nAChR subtypes
[11] = Ki α3β4, Table 5, rat nAChR subtypes
[12] = Ki α4β2, Table 5, rat nAChR subtypes
[13] = Ki α4β4, Table 5, rat nAChR subtypes
[14] = Ki α4β2*, Table 5, *Rat forebrain, mainly α4β2

T1 sequence (P12390 25-500): as above
T1 sequence (P12389 28-511): as the sequence (P12389 28-511) above

SMILES	Ki (α2β2 nAChR subtype; [2]) [nM]	Ki (α2β4 nAChR subtype; [3]) [nM]	Ki (α3β2 nAChR subtype; [4]) [nM]	Ki (α3β4 nAChR subtype; [5]) [nM]	Ki (α4β2 nAChR subtype; [6]) [nM]	Ki (α4β4 nAChR subtype; [7]) [nM]	Ki (α2β2 nAChR subtype; [8]) [nM]	Ki (α2β4 nAChR subtype; [9]) [nM]	Ki (α3β2 nAChR subtype; [10]) [nM]	Ki (α3β4 nAChR subtype; [11]) [nM]	Ki (α4β4 nAChR subtype; [13]) [nM]	further results
C#Cc1cncc([C@@H]2CCCN2C)c1 [SIB-1508Y, reference compound]												Ki (α2β2 nAChR subtype; read-out: Ki α2β2): 642 nM; Ki (α2β4 nAChR subtype; read-out: Ki α2β4): 1140 nM; Ki (α3β2 nAChR subtype; read-out: Ki α3β2): 1890 nM; Ki (α3β4 nAChR subtype; read-out: Ki α3β4): 4430 nM; Ki (α4β2 nAChR subtype; read-out: Ki α4β2): 7080 nM; Ki (α4β4 nAChR subtype; read-out: Ki α4β4): 3240 nM
Clc1ccc(C2CC3CCC2N3CCN2C3CCC2C(c2ccc(Cl)nc2)C3)cn1 (stereo not drawn) [Ligand 59a]	1.3	2.9	5.6	11.8	10.7	18						
Clc1ccc(C2CC3CCC2N3CCN2C3CCC2CC3)cn1 (stereo not drawn) [ZW-84]							7.08	16.6	21.1	67.6	84.5	Ki (α4β2 nAChR subtype; [12]): 21.9 nM; Ki [1, 14]: 112 nM
CN1CCC[C@H]1COc1cncc(C#CC(C)(C)O)c1 [Ligand 15]												Ki (α2β2 nAChR subtype): 1.93 nM; Ki (α2β4 nAChR subtype): 5890 nM; Ki (α3β2 nAChR subtype): 19.7 nM; Ki (α3β4 nAChR subtype): 32600 nM; Ki (α4β2 nAChR subtype): 1.34 nM; Ki (α4β4 nAChR subtype): 5060 nM; Ki [1]: 8.39 nM
c1cncc(OC[C@@H]2CCN2)c1 [Ligand A-85380, reference compound]							0.073	18.4	0.208	77.7	8.04	Ki (α2β4 nAChR subtype; Ki α2β4, Table 6, [3H]-EB 0.099 nM, 0.091 nM, ligand 0.00197-100 μM, n = 1): 18.4 nM; Ki (α3β2 nAChR subtype; Ki α3β2, Table 6, [3H]-EB 0.099 nM, 0.091 nM, ligand 0.00197-100 μM, n = 1): 0.208 nM; Ki (α3β4 nAChR subtype; Ki α3β4, Table 6, [3H]-EB 0.099 nM, 0.091 nM, ligand 0.00197-100 μM, n = 1): 77.7 nM; Ki (α4β2 nAChR subtype; [12]): 0.142 nM; Ki (α4β2 nAChR subtype; Ki α4β2, Table 6, [3H]-EB 0.099 nM, 0.091 nM, ligand 0.00197-100 μM, n = 1): 0.142 nM; Ki (α4β4 nAChR subtype; Ki α4β4, Table 6, [3H]-EB 0.099 nM, 0.091 nM, ligand 0.00197-100 μM, n = 1): 8.04 nM; Ki ([1]; Ki α4β2**, Table 6, **Forebrain mainly α4β2, [3H]-EB 0.099 nM, 0.091 nM, n = 1): 0.248 nM; Ki [1, 14]: 0.248 nM
Clc1ccc(C2CC3CCC2N3CCCCCCCCCCN2C3CCC2C(c2ccc(Cl)nc2)C3)cn1 (stereo not drawn) [Ligand 59d]	5.8	24.2	6.8	67.7	10.3	18.7						
Clc1ccc(C2CC3CCC2N3CCCN2C3CCC2C(c2ccc(Cl)nc2)C3)cn1 (stereo not drawn) [Ligand 59b]	6.1	15.7	5.2	62.9	8.7	23.3						
O=C1CC2CC(c3ccc(Cl)nc3)C1N2 (racemic) [Ligand 5]												Ki (α2β2 nAChR subtype; read-out: Ki α2β2): 1010 nM; Ki (α2β4 nAChR subtype; read-out: Ki α2β4): 3240 nM; Ki (α3β2 nAChR subtype; read-out: Ki α3β2): 1500 nM; Ki (α3β4 nAChR subtype; read-out: Ki α3β4): 8870 nM; Ki (α4β2 nAChR subtype; read-out: Ki α4β2): 2020 nM; Ki (α4β4 nAChR subtype; read-out: Ki α4β4): 3560 nM
Clc1ccc(C2CC3CCC2N3CCCCCCN2C3CCC2C(c2ccc(Cl)nc2)C3)cn1 (stereo not drawn) [Ligand 59c]	4.1	37.4	6.6	64.7	7.2	31.9						
O[C@H]1C[C@H]2N[C@@H]1C[C@@H]2c1ccc(Cl)nc1 (relative stereo) [Ligand 6, 2-exo-(2-Chloro-5-pyridyl)-5-exo-hydroxyl-7-azabicyclo[2.2.1]heptane]							16.9	67.5	19.3	224	72.7	Ki [1, 14]: 69 nM
OCCCCC#Cc1cncc(OC[C@@H]2CCN2)c1 [Ligand 26, 5-(6-Hydroxy-1-hexynyl)-3-(2(S)-azetidinylmethoxy)pyridine]							0.06	269	0.53	4840	74	Ki (α4β2 nAChR subtype; [12]): 0.09 nM

From patent US8030300B2, “Ligands for nicotinic acetylcholine receptors, and methods of making and using them” (priority 2003, dated 2011)
